Patent EP4151202A1, “COMPOSITION FOR PREVENTING AND/OR TREATING WHITE STRETCH MARKS” (LSI Silderma Ltd, priority 2021, dated 2023)

Test system: vergetures blanches
Experiment: Tolerance of cutaneous application (side effects) on skin with white stretch marks
Type: in vivo, individus
Settings: as active ingredient together with the excipients of formule 1
Description: Pour évaluer l'efficacité et la tolérance d'application de la composition de l'invention, 27 individus ont appliqué, matin et soir, pendant 90 jours, sur une zone de peau nettoyée avec vergetures blanches existantes, soit une composition selon l'invention, soit une composition « placebo ».
Chez chaque individu, la composition « placebo » a été appliquée sur une première moitié de la zone constituée par les vergetures blanches, et la composition de l'invention sur l'autre moitié de ladite zone. L'application cutanée sur les différentes zones de vergetures blanches a été accompagnée d'un léger massage pour favoriser la pénétration dans la peau de chacune des deux compositions. En moyenne, il a été appliqué entre 0,02 et 0,04 mL de composition / cm^2 de peau avec vergetures blanches.
On entend par « effet secondaire » des brûlures, irritations, démangeaisons ou tout autre type de modification de la peau au niveau de la surface d'application de la composition de l'invention. Ainsi, le palmitoyl-tripeptide-5, en tant que principe actif dermatologique, en association avec les excipients, est bien toléré en application cutanée.

palmitoyl-tripeptide-5
tolérance en application cutanée: bien toléré
